Holding throughout (format): in vivo
The test system of experiment [1] is Musca domestica. Kind of experiment: Test Example 2: filter paper/sucrose bait test against housefly imagoes. As to conditions: read-out: rate of dead pests. In outline:
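Filter paper in a 5.5 cm cup treated with 0.7 ml test solution and topped with 30 mg sucrose bait. Ten female Musca domestica adults enclosed with the bait. Mortality counted after 24 hours.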

Experiment [2] deals with Blattella germanica. Kind of experiment: Test Example 3: filter paper/sucrose bait test against German cockroach imagoes. To be noted: Blattella germanica, 144 h, read-out: rate of dead pests. In outline:
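Two male imagoes confined in a cup over filter paper treated with 0.7 ml test solution, with 30 mg sucrose spread on top as bait. Dead and surviving insects counted after 6 days to give mortality rate.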

The subject of experiment [3] is Culex pipiens pallens. Kind of experiment: Test Example 4: mosquito larvae test in treated water. As to conditions: 24 h, read-out: rate of dead pests. On the procedure:
0.7 ml of above test solution was added to 100 ml of ion exchanged water (active ingredient concentration: 3.5 ppm). Twenty last-instar larvae of Culex pipiens pallens were set free in the solution. After one day, the number of surviving and dead Culex pipiens pallens was examined and the rate of dead pests was calculated.

The mark [4] stands for this setting: 500 ppm test solution, 0.7 ml on filter paper with 30 mg sucrose, ten female imagoes, after 24 hours.
Setting [5] is: 500 ppm test solution, 0.7 ml on filter paper with 30 mg sucrose, two male imagoes, after 6 days.
Where [6] appears, read: active ingredient concentration 3.5 ppm in water, twenty last-instar larvae, after one day.

Structures are written as SMILES. Read-outs that look alike come from different tables or passages of the source. Some results are limits rather than exact numbers.

In the case of `NC(=O)C(F)(CCC(F)(F)C(F)(F)F)S(=O)(=O)CCC(F)(F)C(F)(F)F` (stereo not drawn) [(73)], the pest or weed control at 500 ppm in experiment [1] (setting [4]) was at least 70%; in experiment [2] (setting [5]), 100%. For the same molecule, the pest or weed control at 3.5 ppm in experiment [3] (setting [6]) is at least 90%.
In the case of `COC(=O)C(F)(CCC(F)(F)C(F)(F)C(F)(F)F)S(=O)(=O)CCC(F)(F)F` (stereo not drawn) [(90)], the pest or weed control at 500 ppm was at least 70% in experiment [1] (24 h) and 100% in experiment [2]. In addition, in experiment [3], the pest or weed control at 3.5 ppm was at least 90%.
In the case of `CN(C)C(=O)C(F)(CCC(F)(F)C(F)(F)F)S(=O)(=O)CCC(F)(F)F` (stereo not drawn) [(74)], the pest or weed control at 500 ppm in experiment [1] (setting [4]) is at least 70%; in experiment [2] (setting [5]), 100%. Besides, in experiment [3] (setting [6]), the pest or weed control at 3.5 ppm is at least 90%.
As for `N#CC(CCC(F)(F)F)S(=O)(=O)CCC(F)(F)F` (stereo not drawn) [(1)], the pest or weed control at 500 ppm was at least 70% in experiment [1] (setting [4]) and 100% in experiment [2] (setting [5]). For the same molecule, in experiment [3] (setting [6]), the pest or weed control at 3.5 ppm is at least 90%.
The like results for `COC(=O)C(Cl)(CCCC(F)(F)C(F)(F)F)S(=O)(=O)CCC(F)(F)F` (stereo not drawn) [(102)] were, in that order, at least 70%, 100% and at least 90%.
The like results for `N#CC(CCC(F)(F)C(F)(F)F)S(=O)(=O)CCC(F)(F)C(F)(F)F` (stereo not drawn) [(8)] were, in that order, at least 70%, 100% and at least 90%.
Consider `CC(C#N)(CCC(F)(F)C(F)(F)F)S(=O)(=O)CCC(F)(F)C(F)(F)C(F)(F)F` (stereo not drawn) [(14)], for which the pest or weed control at 500 ppm in experiment [1] (24 h) is at least 70%; in experiment [2], 100%. In addition, the pest or weed control at 3.5 ppm in experiment [3] is at least 90%.
Consider `N#CC(F)(CCC(F)(F)C(F)(F)F)S(=O)(=O)CCC(F)(F)F` (stereo not drawn) [(20)], for which the pest or weed control at 500 ppm was at least 70% in experiment [1] (setting [4]) and 100% in experiment [2] (setting [5]). The pest or weed control at 3.5 ppm in experiment [3] (setting [6]) is at least 90%.

The values are drawn from US8017656B2, “Organic sulfur compounds and use thereof” (Sumitomo Chemical Company, Limited, priority 2005, dated 2011).
